Reference: US20110178023A1, “Use Of SCO-Spondin Peptides For Inhibiting Or Preventing Neuronal Apoptosis Mediated By Cell Death Receptor Ligands” (Institut National de la Sante et de la Recherche Medicale …, priority 2007, published 2011)

Tested on: embryonic rat hippocampal cells
Test: Apoptosis detection (TUNEL, DAPI counter-staining) in treated hippocampal cell cultures
Assay type: cell-based
Conditions: for apoptosis induced by cell death receptor pathway (Fas, TRAIL-R) in hippocampal cells: TSR peptide added to culture medium, 7 days of treatment; for number of apoptotic cells with death receptor ligand alone: FasL 20 ng/mL or TRAIL 80 ng/mL alone
Protocol: FIG. 2: Histogramm representing the percentage of apoptotic cells outside the clusters compared with the total number of cells, data provided by only one experiment realized in triplicate. In each assay, apoptotic labelling with TUNEL method were counted on 4 photos aleatory on each slide, and having always at least 1 neurosphere. The cultures were treated (cases TSR, FasL, TSR+FasL, TRAIL, TSR+TRAIL, FasL+TRAIL and TSR+FasL+TRAIL) or not treated (control, c) during 7 days with a TSR peptide concentration of 375 μg/mL and/or 20 ng/mL of FasL and/or 80 ng/mL of TRAIL).
Cultures of hippocampal cells from foetal rats: Cells were obtained from E18 rat brains. Tissues were removed in dissection medium (Hank's Balanced Salt Solution, HBSS plus antibiotics). Composition of dissection medium HBSS plus antibiotics): • potassium chloride (KCl): 400 mg/L • potassium phosphate (KH2PO4): 60 mg/L • sodium bicarbonate (NaHCO3): 350 mg/L • sodium chloride (NaCl): 8000 mg/L • sodium phosphate (Na2HPO4): 48 mg/L • D-glucose: 1000 mg/L • penicillin-streptomycin: 100 units/mL
Meninges were removed from the embryos brains and hippocampus was dissected in a sterile petri dish in HBSS plus antibiotic medium. After centrifugation cells were ressuspended in culture medium MEM with Earl Salts supplemented with B27, EGF, FGF-2 and antibiotics. The composition of the culture medium was the following: • L-arginine hydrochloride: […] • L-cystine: 24 mg/L • L-glutamine: 292 mg/L • L-histidine-H2O Hydrochloride: 42 mg/L • L-isoleucine: 52 mg/L • L-leucine 52 mg/L • L-lysine Hydrochloride: 73 mg/l, • L-methionine: 15 mg/L • L-phenylalanine: 32 mg/L • L-threonine: 48 mg/L • L-tryptophane: 10 mg/L • L-tyrosine: 36 mg/L • L-valine: 46 mg/L • choline Chloride: 1 mg/L • D-calcium pantothenate: 1 mg/L • folic acid: 1 mg/L • I-inositol: 2 mg/L • Niacinamide: 1 mg/L • pyridoxal Hydrochloride: 1 mg/L • Riboflavine: 0.1 mg/L • thiamine Hydrochloride: 1 mg/L • calcium chloride (CaCl2-2H2O): 264 mg/L • magnesium sulfate (MgSO4-7H2O): 200 mg/L • potassium chloride (KCl): 400 mg/L • sodium bicarbonate (NaHCO3): 2200 mg/L • sodium chloride (NaCl): 6800 mg/L • sodium phosphate (NaH2PO4-2H2O): 158 mg/L • D-glucose: 4500 mg/L • phenol red: 10 mg/L • Sodium pyruvate: 110.04 mg/L • B27 medium (Invitrogen) 50×: 2% v/v • EGF: 20 μg/L • FGF-2: 20 μg/L • Penicillin-streptomycin: 100 units/mL
Hippocampus fragments were dissociated mechanically with 1 syringe 1 ml and 1 needle 25G and added with 1 mL of culture medium then centrifuged at 1200 rpm for 10 min. The supernatant is then removed and the cell pellet is resupended in 1 mL of culture medium. Other mechanic dissociation was performed with a seringe 1 mL and a needle 25G. Cell count was determined with Malassez hemocytometer and viability of cells was evaluated by counting the cells which have not absorbed the Trypan blue. Then cells are seeded in 48-well plates, at 40 000 cells by well in 500 μL of culture medium, on culture dishes precovered with collagen.
Preparation of precovered dishes with collagen: After an incubation of 10 min in absolute ethanol, the glass dishes were sterilized by heating 2H at 120° C. Sterilized glass dishes (10 mm diameter) was put on culture well and covered with a 0.1 mg/mL collagen calf skin solution. After 1 hr incubation at 37° C., the excess of solution is removed and the plate is maintained one night under hood of culture in order to let dry the plates. Before use, the wells were washed twice with 200 μL sterile distillated water.
Treatment of embryonic rat hippocampal cells: After 5 days of culture, cells were cultured in medium without growth factors (MEM with Earl salts, B27 and antibiotics) with different conditions of treatment combinating TSR peptide (WSGWSSCSRSCG—SEQ ID No 8) (375 μg/mL), FasL (20 ng/mL) and TRAIL (80 ng/mL). […]

WSGWSSCSRSCG [TSR peptide, peptide derived from the TSR (thrombospondin type 1 units) of SCO-spondin]
number of apoptotic cells, apoptosis induced by FasL (TSR peptide 375 μg/mL + FasL 20 ng/mL, 7 days, compared to FasL culture, FIG. 2): decreased | number of apoptotic cells, apoptosis induced by TRAIL (TSR peptide 375 μg/mL + TRAIL 80 ng/mL, 7 days, compared to TRAIL culture, FIG. 2): decreased in the presence of TSR peptide to a level comparable to control cells | level of apoptosis (final statement, presumably FasL+TRAIL culture) (TSR peptide 375 μg/mL, 7 days, FIG. 2, inducer not given): restores the basal level of apoptosis | apoptosis induced by cell death receptor pathway (Fas, TRAIL-R) in hippocampal cells: inhibits the apoptosis | apoptosis induced by cell death receptor pathway (Fas, TRAIL-R) in hippocampal cells (listed as peptide TSR): decreased | effect on basal apoptosis (number of apoptotic cells) (TSR peptide alone 375 μg/mL, 7 days, compared to control cultures, FIG. 2): no effect

B1: TRAIL: TNF-related apoptosis inducing ligand, cell death receptor ligand used to induce apoptosis (protein, UniProt P50591 1-281, looked up)
Tumor necrosis factor ligand …: MAMMEVQGGPSLGQTCVLIVIFTVLLQSLCVAVTYVYFTNELKQMQDKYSKSGIACFLKEDDSYWDPNDEESMNSPCWQVKWQLRQLVRKMILRTSEETISTVQEKQQNISPLVRERGPQRVAAHITGTRGRSNTLSSPNSKNEKALGRKINSWESSRSGHSFLSNLHLRNGELVIHEKGFYYIYSQTYFRFQEEIKENTKNDKQMVQYIYKYTSYPDPILLMKSARNSCWSKDAEYGLYSIYQGGIFELKENDRIFVSVTNEHLIDMDHEASFFGAFLVG
number of apoptotic cells with death receptor ligand alone (7 days, FIG. 2): more important than in the presence of FasL

B2: FasL: Fas ligand, cell death receptor ligand of the TNF superfamily used to induce apoptosis (protein, UniProt P48023 130-281, looked up)
Tumor necrosis factor ligand …: QIGHPSPPPEKKELRKVAHLTGKSNSRSMPLEWEDTYGIVLLSGVKYKKGGLVINETGLYFVYSKVYFRGQSCNNLPLSHKVYMRNSKYPQDLVMMEGKMMSYCTTGQMWARSSYLGAVFNLTSADHLYVNVSELSLVNFEESQTFFGLYKL
number of apoptotic cells with death receptor ligand alone (7 days, FIG. 2): increased
